{
  "source": "patent US11992530B2",
  "about": "(priority 2018, dated 2024)",
  "key": {"[1]": {"experiment": "Dynamic vapor sorption (DVS) isotherm", "settings": "for DVS weight loss upon desorption: hysteresis observed"}, "[2]": {"experiment": "Clinical pharmacokinetics (plasma levels, distribution, excretion)", "description": "The compound is available as anhydrous and crystalline forms; the pentahydrate crystalline form is the most common hydrate form. […] Proposed mechanisms of action involve its […], which allow it to act as a free radical scavenger and/or by covalent binding and inactivating the platinum compound.\n(§1) Thiosulfate is an endogenous compound ubiquitously present in all cells and organs."}, "[3]": {"settings": "for Cisplatin Concentration: 24° C.", "method": "In one aspect, a mixed mode C-18 chromatography column is used in the assay, which has both hydrophobic interaction and ion exchange capabilities. In another aspect, the HPLC run time for the assay is about 2 min, about 5 min, about 7.5 min, about 10 min or about 15 min. In one aspect, the HPLC run time is about 5 min or about 10 min.\nIn another aspect, the concentration is analyzed using HPLC with a mixed mode C-18 chromatography column at a column temperature of 35° C., flow rate of 400 μL/min, and UV detection at 220 nm. In one aspect, the HPLC method comprises a step gradient of 100% Buffer A (0.5 mM ammonium formate in 9:1 water:acetonitrile, pH 4) for 3 min; then 90% Buffer A and 10% Buffer B (200 mM ammonium formate in 7:3 water:acetonitrile, pH 4) for 3.5 min; then 100% Buffer A for 4.5 min.\nThe method uses a Waters Acquity H-Class HPLC system with an Imtakt Scherzo SW-C18 mixed mode column. The HPLC method conditions are outlined in Table 7. […] This range covers greater than two orders of magnitude at dose-relevant concentrations.\nEach sample was transferred to an HPLC vial and placed in an autosampler chamber held at 24° C. Samples were injected onto the HPLC system approximately every 30 minutes to obtain 4 time-points for each sample. A gradient was run and the retention time and peak area were obtained."}, "[4]": {"system": "cisplatin-induced ototoxicity", "description": "Reference is made to International Patent Application Publication No. WO 2019/108592, which is a continuation of U.S. patent application Ser. No. 15/826,243, filed on Nov. 29, 2017, both of which are incorporated by reference herein in their entirety."}, "[5]": {"settings": "animals", "description": "as §1"}, "[6]": {"system": "human plasma proteins", "description": "as §1"}, "[7]": {"settings": "cited from earlier work"}, "[8]": {"system": "small cell lung cancer cell cultures", "settings": "cited from earlier work"}, "[9]": {"settings": "thiosulfate:cisplatin 5:1 (n = 2)"}, "[10]": {"settings": "thiosulfate:cisplatin 6:1 (n = 2)"}, "[11]": {"settings": "thiosulfate:cisplatin 10:1 (n = 2)"}, "[12]": {"settings": "preliminary clinical studies, dose equivalent to 5.1 g/m^2 sodium thiosulfate for injection"}},
  "note": "Several values for one entry are separate records, joined by “and”; a condition that tells them apart may be missing. Equal entries are not always repeated. Where two headings read alike, the source gives them in different places.",
  "data": [
    {"smiles": "O=S([O-])([O-])=S.[Na+].[Na+]", "note": "[anhydrous sodium thiosulfate, Sodium thiosulfate anhydrous]", "values": [
      {"measurement": "DVS weight change upon equilibration to 0% relative humidity", "setting": "[1]", "result": "minimal weight change"},
      {"measurement": "DVS weight loss upon desorption", "setting": "[1]", "result": 51, "unit": "%"}
    ]},
    {"smiles": "O=S(O)(O)=S", "note": "[thiosulfate]", "values": [
      {"measurement": "Endogenous serum thiosulfate levels", "setting": "[2]; adult volunteers", "result": "5.5 ± 1.8", "unit": "µM"}
    ]},
    {"smiles": "O=S([O-])([O-])=S.[Na+].[Na+]", "note": "[STS, sodium thiosulfate]", "values": [
      {"measurement": "Half-life of cisplatin (time to reach 333/2 μM)", "setting": "[3]; [9]", "result": 3.3, "unit": "h"},
      {"measurement": "Slope, linear regression of cisplatin conc. vs. time", "setting": "[3]; [9]", "result": "−0.80", "unit": "Cisplatin Area/min"},
      {"measurement": "Cisplatin Concentration", "setting": "[3]; thiosulfate:cisplatin 5:1, 4 min", "result": 323.7, "unit": "µM"},
      {"measurement": "Cisplatin Concentration", "setting": "[3]; thiosulfate:cisplatin 5:1, 37 min", "result": "294.2 µM and 294.0 µM"},
      {"measurement": "Cisplatin Concentration", "setting": "[3]; thiosulfate:cisplatin 5:1, 70 min", "result": "266.8 µM and 268.0 µM"},
      {"measurement": "Cisplatin Concentration", "setting": "[3]; thiosulfate:cisplatin 5:1, 103 min", "result": "243.7 µM and 245.3 µM"},
      {"measurement": "Half-life of cisplatin (time to reach 333/2 μM)", "setting": "[3]; [10]", "result": 3.07, "unit": "h"},
      {"measurement": "Slope, linear regression of cisplatin conc. vs. time", "setting": "[3]; [10]", "result": "−0.87", "unit": "Cisplatin Area/min"},
      {"measurement": "Cisplatin Concentration", "setting": "[3]; thiosulfate:cisplatin 6:1, 5 min", "result": "325.4 µM and 324.5 µM"},
      {"measurement": "Cisplatin Concentration", "setting": "[3]; thiosulfate:cisplatin 6:1, 38 min", "result": "286.4 µM and 293.2 µM"},
      {"measurement": "Cisplatin Concentration", "setting": "[3]; thiosulfate:cisplatin 6:1, 71 min", "result": "259.8 µM and 266.2 µM"},
      {"measurement": "Cisplatin Concentration", "setting": "[3]; thiosulfate:cisplatin 6:1, 104 min", "result": "235.6 µM and 240.5 µM"},
      {"measurement": "Half-life of cisplatin (time to reach 333/2 μM)", "setting": "[3]; [11]", "result": 2.27, "unit": "h"},
      {"measurement": "Slope, linear regression of cisplatin conc. vs. time", "setting": "[3]; [11]", "result": "−1.13", "unit": "Cisplatin Area/min"},
      {"measurement": "Cisplatin Concentration", "setting": "[3]; thiosulfate:cisplatin 10:1, 4 min", "result": 319.5, "unit": "µM"},
      {"measurement": "Cisplatin Concentration", "setting": "[3]; thiosulfate:cisplatin 10:1, 5 min", "result": 320.3, "unit": "µM"},
      {"measurement": "Cisplatin Concentration", "setting": "[3]; thiosulfate:cisplatin 10:1, 37 min", "result": 269.4, "unit": "µM"},
      {"measurement": "Cisplatin Concentration", "setting": "[3]; thiosulfate:cisplatin 10:1, 38 min", "result": 278.5, "unit": "µM"},
      {"measurement": "Cisplatin Concentration", "setting": "[3]; thiosulfate:cisplatin 10:1, 70 min", "result": 235.2, "unit": "µM"},
      {"measurement": "Cisplatin Concentration", "setting": "[3]; thiosulfate:cisplatin 10:1, 71 min", "result": 239.6, "unit": "µM"},
      {"measurement": "Cisplatin Concentration", "setting": "[3]; thiosulfate:cisplatin 10:1, 103 min", "result": 205.6, "unit": "µM"},
      {"measurement": "Cisplatin Concentration", "setting": "[3]; thiosulfate:cisplatin 10:1, 104 min", "result": 209.3, "unit": "µM"},
      {"measurement": "Prevention of ototoxicity", "setting": "[4]; doses equivalent to 6.4 to 12.8 g/m^2 sodium thiosulfate for injection", "result": "prevented ototoxicity"},
      {"measurement": "Ototoxicity in pediatric patients treated with platinum based chemotherapeutics", "setting": "[4]; pediatric patients", "result": "reduces ototoxicity"},
      {"measurement": "Hearing protection", "setting": "[4]; [12]", "result": "did not show hearing protection"},
      {"measurement": "Survival", "setting": "[4]; treatment 6 hours after completion of each CIS infusion", "result": "did not affect survival"},
      {"measurement": "Efficacy of cisplatin based chemotherapeutics when STS was administered", "setting": "[4]; two phase III clinical trials, pediatric patients", "result": "not affected"},
      {"measurement": "Plasma accumulation", "setting": "[2]; administered on 2 consecutive days", "result": "no plasma accumulation"},
      {"measurement": "Volume of distribution", "setting": "[2]; adults", "result": 0.23, "unit": "L/kg"},
      {"measurement": "Maximum STS plasma levels", "setting": "[2]; children and adults, 15-minute infusion, dose equivalent to 12.8 g/m^2 sodium thiosulfate for injection", "result": "approximately 13.3 mM"},
      {"measurement": "Distribution across the blood brain barrier or placenta", "setting": "[2]; human, in vivo", "result": "absent or limited"},
      {"measurement": "Absorption after oral administration", "setting": "[2]; oral", "result": "poorly absorbed"},
      {"measurement": "Maximum plasma levels", "setting": "[2]; [12]", "result": 3.9, "unit": "mM"},
      {"measurement": "Distribution to the cochlea", "setting": "[5]", "result": "distribute to the cochlea"},
      {"measurement": "Binding to human plasma proteins", "setting": "[6]", "result": "does not bind"},
      {"measurement": "Serum sodium levels", "setting": "doses equivalent to 12.8 g/m^2 sodium thiosulfate for injection", "result": "small, transient increase"},
      {"measurement": "Renal or other toxicities", "setting": "pediatric patients treated with a platinum based chemotherapeutic", "result": "not exacerbate renal or other toxicities"},
      {"measurement": "Excreted in the urine unmodified", "setting": "[7]; following IV administration", "result": "Up to 95%"},
      {"measurement": "Biological half-life", "setting": "[7]; human, in vivo", "result": 0.65, "unit": "hours"},
      {"measurement": "Biological half-life, range dependent on dose", "setting": "[7]; human, in vivo", "result": "16.5-182 minutes"},
      {"measurement": "Cytotoxicity of etoposide after immediate or delayed addition of STS", "setting": "[8]; incubation for 72 hours", "result": "no reduction of cytotoxicity"},
      {"measurement": "Anti-tumor activity of doxorubicin, carmustine (BCNU), paclitaxel, or methotrexate with STS", "setting": "[8]; similar studies", "result": "no reduction of anti-tumor activity"}
    ]},
    {"smiles": "O.O.O.O.O.O=S([O-])([O-])=S.[Na+].[Na+]", "note": "[sodium thiosulfate pentahydrate]", "values": [
      {"measurement": "DVS weight gain upon sorption", "setting": "[1]", "result": 81, "unit": "%"},
      {"measurement": "DVS weight loss upon drying", "setting": "[1]", "result": 27, "unit": "%"},
      {"measurement": "DVS weight loss upon desorption", "setting": "[1]", "result": 51, "unit": "%"}
    ]}
  ]
}
